Source: patent publication US12544395B2, “Combination compositions comprising a beta-lactamase inhibitor and uses thereof” (priority 2018, dated 2026)
≈ marks a conversion by molar mass, not a printed value. Read-outs that look alike come from different tables or passages of the source.

What was measured:
Assay type in all cases: cell-based
[1] = tested on: E. coli 2150; assay: Broth microdilution MIC (strain enzymes: SHV-3, TEM-1); conditions: Escherichia coli, 2150; alone; read-out: MIC of cefdinir (CDR)
[2] = tested on: E. coli Si-FDL-GES; assay: microbe, parasite or virus in culture; conditions: Escherichia coli, read-out: MIC of cefdinir (CDR)
[3] = tested on: E. coli SI-PBLII; assay: Broth microdilution MIC (strain enzymes: CTX-M2, TEM-1); conditions: Escherichia coli; alone; read-out: MIC of cefdinir (CDR)
[4] = tested on: E. coli BAS 1; assay: Broth microdilution MIC (strain enzymes: none detected); conditions: Escherichia coli, BAS1; alone; read-out: MIC of cefdinir (CDR)
[5] = tested on: E. coli SI-V502; assay: Broth microdilution MIC (strain enzymes: TEM-29, CTX-M15); conditions: Escherichia coli, SIV502; alone; read-out: MIC of cefdinir (CDR)
[6] = tested on: K. pneumoniae 319478; assay: Broth microdilution MIC (strain enzymes: SHV-12, CTX-M3 and TEM-1); conditions: Klebsiella pneumoniae, 319478; alone; read-out: MIC of cefdinir (CDR)
[7] = tested on: K. pneumoniae KP 3; assay: Broth microdilution MIC (strain enzymes: SHV-1, TEM-1); conditions: Klebsiella pneumoniae, KP3; alone; read-out: MIC of cefdinir (CDR)
[8] = tested on: K. pneumoniae 3151; assay: Broth microdilution MIC (strain enzymes: SHV-12, TEM-1); conditions: Klebsiella pneumoniae, 3151; alone; read-out: MIC of cefdinir (CDR)
[9] = tested on: E. coli 2806; assay: as above; conditions: Escherichia coli, 2806; alone; read-out: MIC of cefdinir (CDR)
[10] = tested on: K. oxytoca 169219; assay: Broth microdilution MIC (strain enzymes: TEM-1, CTXM-15); conditions: Klebsiella oxytoca, 169219; alone; read-out: MIC of cefdinir (CDR)
[11] = tested on: E. coli 3327; assay: Broth microdilution MIC (strain enzymes: TEM-1, SHV-12); conditions: Escherichia coli, 3327; alone; read-out: MIC of cefdinir (CDR)
[12] = tested on: E. coli ESBL 5; assay: Broth microdilution MIC (strain enzymes: CTX-M15, TEM-1); conditions: Escherichia coli, ESBL5; alone; read-out: MIC of cefdinir (CDR)
[13] = tested on: E. coli 3174; assay: Broth microdilution MIC (strain enzymes: TEM-1, CTXM-15); conditions: Escherichia coli, 3174; alone; read-out: MIC of cefdinir (CDR)
[14] = tested on: K. pneumoniae ESBL 10; assay: Broth microdilution MIC (strain enzymes: SHV-12, TEM-1); conditions: Klebsiella pneumoniae, ESBL10; alone; read-out: MIC of cefdinir (CDR)
[15] = tested on: E. coli SI-AIRT-4; assay: Broth microdilution MIC (strain enzymes: TEM-1); conditions: Escherichia coli, SIAIRT4; alone; read-out: MIC of cefdinir (CDR)
[16] = tested on: E. coli 1924; assay: Broth microdilution MIC (strain enzymes: TEM-12); conditions: Escherichia coli, 1924; alone; read-out: MIC of cefdinir (CDR)
[17] = tested on: K. pneumoniae 304487; assay: Broth microdilution MIC (strain enzymes: SHV-12,TEM-1); conditions: Klebsiella pneumoniae, 304487; alone; read-out: MIC of cefdinir (CDR)
[18] = tested on: E. coli 25922; assay: Broth microdilution MIC (strain enzymes: None detected); conditions: Escherichia coli, 25922; alone; read-out: MIC of cefdinir (CDR)
[19] = tested on: K. pneumoniae ESBL 7 #2; assay: Broth microdilution MIC (strain enzymes: SHV-12, CTX-M15, TEM-1); conditions: Klebsiella pneumoniae; alone; read-out: MIC of cefdinir (CDR)
[20] = tested on: K. pneumoniae KPN 508; assay: Broth microdilution MIC (strain enzymes: SHV-7, TEM-1); conditions: Klebsiella pneumoniae, KPN508; alone; read-out: MIC of cefdinir (CDR)
[21] = tested on: E. coli SI-LP377; assay: microbe, parasite or virus in culture; conditions: Escherichia coli, SILP377, read-out: MIC of cefdinir (CDR)
[22] = tested on: K. pneumoniae 329633; assay: Broth microdilution MIC (strain enzymes: SHV-5, TEM-1); conditions: Klebsiella pneumoniae, 329633; alone; read-out: MIC of cefdinir (CDR)
[23] = tested on: K. pneumoniae 115468; assay: Broth microdilution MIC (strain enzymes: TEM-1); conditions: Klebsiella pneumoniae, 115468; alone; read-out: MIC of cefdinir (CDR)
[24] = tested on: K. pneumoniae 153239; assay: Broth microdilution MIC (strain enzymes: SHV-11, TEM-1); conditions: Klebsiella pneumoniae, 153239; alone; read-out: MIC of cefdinir (CDR)
[25] = tested on: K. pneumoniae KP 8; assay: Broth microdilution MIC (strain enzymes: TEM-10, TEM-1, CTX-M15); conditions: Klebsiella pneumoniae, KP8; alone; read-out: MIC of cefdinir (CDR)
[26] = tested on: E. coli SI-NO36; assay: Broth microdilution MIC (strain enzymes: SHV-11, TEM-1); conditions: Escherichia coli, SINO36; alone; read-out: MIC of cefdinir (CDR)
[27] = tested on: K. pneumoniae SI-KP NO30; assay: Broth microdilution MIC (strain enzymes: TEM-26b, SHV-60, SHV-26); conditions: Klebsiella pneumoniae, SIKPNO30; alone; read-out: MIC of cefdinir (CDR)
[28] = tested on: E. coli ESBL 4; assay: Broth microdilution MIC (strain enzymes: CTX-M15, TEM-1); conditions: Escherichia coli, ESBL4; alone; read-out: MIC of cefdinir (CDR)
[29] = tested on: E. coli ESBL 2; assay: Broth microdilution MIC (strain enzymes: TEM-1); conditions: Escherichia coli, ESBL2; alone; read-out: MIC of cefdinir (CDR)
[30] = tested on: K. pneumoniae ESBL 7 #1; assay: Broth microdilution MIC (strain enzymes: SHV-12, TEM-1); conditions: Klebsiella pneumoniae; alone; read-out: MIC of cefdinir (CDR)
[31] = tested on: K. oxytoca 176877; assay: Broth microdilution MIC (strain enzymes: SHV-105); conditions: Klebsiella oxytoca, 176877; alone; read-out: MIC of cefdinir (CDR)
[32] = tested on: panel of ESBL-producing Enterobacteriaceae (40 strains); assay: Broth microdilution MIC50/MIC90 summary over the panel
[33] = tested on: K. pneumoniae KP 4; assay: Broth microdilution MIC (strain enzymes: SHV-2a, SHV-5, TEM-1); conditions: Klebsiella pneumoniae, KP4; alone; read-out: MIC of cefdinir (CDR)
[34] = tested on: K. pneumoniae 11/23 LF#2; assay: microbe, parasite or virus in culture; conditions: Klebsiella pneumoniae, read-out: MIC of cefdinir (CDR)
[35] = tested on: K. pneumoniae ESBL 8 #2; assay: Broth microdilution MIC (strain enzymes: SHV-12, TEM-1); conditions: Klebsiella pneumoniae; alone; read-out: MIC of cefdinir (CDR)
[36] = tested on: K. oxytoca 496 #2; assay: Broth microdilution MIC (strain enzymes: SHV-105, TEM-1); conditions: Klebsiella oxytoca; alone; read-out: MIC of cefdinir (CDR)
[37] = tested on: K. pneumoniae 170375; assay: Broth microdilution MIC (strain enzymes: SHV-12, CTX-M15 and TEM-1); conditions: Klebsiella pneumoniae, 170375; alone; read-out: MIC of cefdinir (CDR)
[38] = tested on: K. pneumoniae KI (KCl); assay: Broth microdilution MIC (strain enzymes: TEM-10); conditions: Klebsiella pneumoniae; alone; read-out: MIC of cefdinir (CDR)
[39] = tested on: E. coli SI-M004; assay: Broth microdilution MIC (strain enzymes: SHV-2, GES-12); conditions: Escherichia coli, SIM004; alone; read-out: MIC of cefdinir (CDR)
[40] = tested on: K. pneumoniae ESBL 8 #1; assay: Broth microdilution MIC (strain enzymes: TEM-1, SHV-12); conditions: Klebsiella pneumoniae; alone; read-out: MIC of cefdinir (CDR)
[41] = tested on: K. pneumoniae BAA 1705; assay: Broth microdilution MIC (strain KPC-producing); conditions: Klebsiella pneumoniae, BAA1705; alone; read-out: MIC of cefdinir (CDR)

C=CC1=C(C(=O)O)N2C(=O)[C@@H](NC(=O)/C(=N\O)c3csc(N)n3)[C@H]2SC1 [Cefdinir, cefdinir, reference compound]
MIC [1]: > 32 mg/L
MIC [2]: > 32 mg/L
MIC [3]: 2 mg/L
MIC [4]: > 32 mg/L
MIC [5]: 2 mg/L
MIC [6]: > 32 mg/L
MIC [7]: 4 mg/L
MIC [8]: > 32 mg/L
MIC [9]: 4 mg/L
MIC [10]: > 32 mg/L
MIC [11]: 16 mg/L
MIC [12]: > 32 mg/L
MIC [13]: 1 mg/L
MIC [14]: 16 mg/L
MIC [15]: 0.25 mg/L
MIC [16]: 2 mg/L
MIC [17]: 8 mg/L
MIC [18]: 0.5 mg/L
MIC [19]: > 32 mg/L
MIC [20]: 32 mg/L
MIC [21]: > 32 mg/L
MIC [22]: 16 mg/L
MIC [23]: 8 mg/L
MIC [24]: 2 mg/L
MIC [25]: 0.5 mg/L
MIC [26]: 4 mg/L
MIC [27]: 0.5 mg/L
MIC [28]: > 32 mg/L
MIC [29]: > 32 mg/L
MIC [30]: 32 mg/L
MIC [31]: 8 mg/L
MIC50 ([32]; read-out: Cefdinir MIC50): 16 mg/L (≈ 40.5 µM)
MIC90 ([32]; read-out: Cefdinir MIC90): > 32 mg/L
MIC [33]: 8 mg/L
MIC [34]: 2 mg/L
MIC [35]: 16 mg/L
MIC [36]: 16 mg/L
MIC [37]: > 32 mg/L
MIC [38]: 1 mg/L
MIC [39]: 32 mg/L
MIC [40]: 16 mg/L
MIC [41]: > 32 mg/L

COCC1=C(C(=O)O)N2C(=O)[C@@H](NC(=O)/C(=N\OC)c3csc(N)n3)[C@H]2SC1 [Cefpodoxime, cefpodoxime, reference compound]
MIC50 ([32]; read-out: Cefpodoxime MIC50): > 32 mg/L
MIC90 ([32]; read-out: Cefpodoxime MIC90): > 32 mg/L
